Data set [1] in a line: Redox potential (redox potentiometry). In kind it is physicochemical. As to conditions: compared with hydrogen (set at 0). The text has this: The ability of quinone compounds to accept electrons from another substance (i.e., be reduced) may be quantified using a technique known as redox potentiometry. Redox potentiometry is a technique that measures (in volts) the affinity of a substance for electrons—its electronegativity—compared with hydrogen (which is set at 0). Substances more strongly electronegative than (i.e., capable of oxidizing) hydrogen have positive redox potentials. Substances less electronegative than (i.e., capable of reducing) hydrogen have negative redox potentials. The greater the difference between the redox potentials of two substances (ΔE), the greater the vigor with which electrons will flow spontaneously from the less positive to the more positive (more electronegative) substance. As is well known in the art, redox potential may be measured using any of a variety of commercially available meters, such as an Oxidation Reduction Potential (ORP) tester commercially available from Hanna Instruments, Inc. of Woonsocket, R.I. The redox potential of the quinone compounds may, for instance, be less than about −50 millivolts (mV), in some embodiments less than about −150 mV, in some embodiments less than about −300 mV, and in some embodiments, less than about −500 mV. Although not always the case, the redox potential may vary based on the number and location of functional groups, such as sulfonic acid, on the quinone structure. For example, 2-sulfonic acid anthraquinone has a redox potential of −380 mV; 2,6-disulfonic acid anthraquinone has a redox potential of −325 mV; and 2,7-disulfonic acid anthraquinone has a redox potential of −313 mV. Likewise, 2-sulfonic acid naphthaquinone has a redox potential of −60 mV. The use of other functional groups may also have an affect on the ultimate redox potential of the compound. For example, Acid Blue 25, which also contains amino- and aramid functional groups, has a redox potential of −605 mV.

The nature of data set [2]: Urine odor and secondary odor panel ranking, dye powders in urine, 8 millimolar (Example 7). The arrangement: species or system human. As to conditions: for Secondary Odor Ranking: scale 1 to 5, 5 extremely unpleasant, individual panelists' scores. Here is the method:
(§1) Qualitative odor reduction was also assessed against common odors, such as garlic and urine. Specifically, panelists assessed odorant-containing jars by carefully unscrewing, and then raising the lid of each jar in a controlled manner, such that the odor was not diluted by the ambient air. The jars were wrapped and coded to ensure that the sample identity was unknown.
The effectiveness of various dyes in reducing urine odor was compared. […] Human female urine was initially collected and pooled by a nurse on staff at Kimberly-Clark Corporation. The pooled urine was added to mason jars in 50-milliliter aliquots using an automated pipette aid. Powders of the aforementioned dyes (commercially available from Sigma-Aldrich Chemical Co., Inc. of St. Louis, Mo. and Noveon Hilton Davis, Inc. of Cincinnati, Ohio) were weighed and placed into the mason jars containing 50 milliliters of urine so that the final concentration of the dye powder was 8 millimolar (equivalent to 0.5 wt. %). The mason jars were placed in an incubator overnight at 37° C.
To aid in the assessment of the dyes, the mason jars were divided into two groups for a morning assessment, and the best of both groups were compared in an afternoon assessment (after a total of 24 hours). In addition to ranking the jars from least to most malodorous (on a scale from 1 to 7, with 7 being the most malodors), panelists were also asked to judge whether there were secondary (non-urine) odors present and, if so, the extent that the secondary odors were unpleasant (on a scale from 1 to 5, with 5 being extremely unpleasant).
In this assessment, panelists were given instructions to rank the least malodorous jar as “1” and the most malodorous jar as “10,” remaining free to rank the other jars between 2-9.

Data set [3] can be described thus: Urine odor panel ranking, dye powders in urine, 1.6 millimolar (Example 6). The arrangement: species or system human. As to conditions: 1.6 millimolar dye in urine, 24 hours, 37° C. The protocol: as §1
The effectiveness of various dyes in reducing urine odor was compared. The dyes chosen for this example were powders of Acid Blue 25, Acid Blue 45, Acid Blue 129, FD&C Blue No. 1 (a triarylmethane dye), Acid Green 27, Acid Green 41, and Mordant Violet 5 (Alizarin Violet 3R) (commercially available from Sigma-Aldrich Chemical Co., Inc. of St. Louis, Mo.), as well as D&C Green No. 5 (commercially available from Noveon Hilton Davis, Inc. of Cincinnati, Ohio). Human female urine was initially collected and pooled by a nurse on staff at Kimberly-Clark Corporation. […] Powders of the aforementioned dyes were weighed and placed into the mason jars containing 50 milliliters of urine so that the final concentration of the dye powder was 1.6 millimolar (equivalent to 0.1 wt. %). […] A score of “10” was assigned to the most malodorous jar and a score of “1” was assigned to the least malodorous jar.

Where [4] appears, read: After 24 Hours, top performers of both groupings, 1 least, 10 most malodorous.
[5] abbreviates: First Grouping, morning assessment, 8 millimolar, 7 most malodorous.
Setting [6] is: First Grouping, scale 1 to 7, 7 most malodorous.

`Nc1c(S(=O)(=O)[O-])cc(Nc2ccccc2)c2c1C(=O)c1ccccc1C2=O.[Na+]` [Acid Blue 25] returned a redox potential in data set [1] of −605 mV. For the same compound, in data set [2] (setting [4]), the “Urine Odor Ranking (number of panelists): ranking 4” value (from here on “Urine Odor Ranking … ranking 4”) is 1 number of panelists, the “Urine Odor Ranking (number of panelists): ranking 7” value was 1 number of panelists, the “Urine Odor Ranking (number of panelists): ranking 9” value is on record as 2 number of panelists and the “Urine Odor Ranking (number of panelists): ranking 10” value was 1 number of panelists. The “Secondary Odor Ranking” value in data set [2] (After 24 Hours) is reported as 4. Also, in data set [2] (setting [5]), the “Urine Odor Ranking (number of panelists): ranking 1” value is recorded as 1 number of panelists, the “Urine Odor Ranking (number of panelists): ranking 2” value is reported as 1 number of panelists, the “Urine Odor Ranking (number of panelists): ranking 3” value is recorded as 1 number of panelists and the “Urine Odor Ranking … ranking 4” value is recorded as 1 number of panelists. The “Urine Odor Ranking (number of panelists): ranking 5” value in data set [2] (setting [5]) is reported as 1 number of panelists. In addition, in data set [2] (First Grouping), the “Secondary Odor Ranking” value is 2. In data set [2] (setting [6]), the “Average Urine Odor Ranking, Avg. Score” value came to 3.0. Moreover, the “Average Urine Odor Ranking, Avg. Score” value in data set [2] (after 24 hours, top performers, 1 least, 10 most malodorous) worked out at 6.8. Moreover, in data set [2] (after 24 hours, top performers, ignoring statistical anomalies), the “Average Urine Odor Ranking (with statistical corrections), Avg. Score” value was 8.8. In addition, in data set [2] (first grouping), the “urine odor reduction (panel)” value is “functioned effectively to reduce odor”.
With `Cc1ccc(Nc2cccc3c2C(=O)c2cccc(Nc4ccc(C)cc4S(=O)(=O)[O-])c2C3=O)c(S(=O)(=O)[O-])c1.[Na+].[Na+]`, the “urine odor reduction (panel)” value in data set [3] is listed as “did not perform as well in reducing odor as D&C Green No. 5”. For the same compound, in data set [2] (setting [5]), the “Urine Odor Ranking … ranking 4” value is reported as 1 number of panelists, the “Urine Odor Ranking (number of panelists): ranking 6” value is listed as 3 number of panelists and the “Urine Odor Ranking (number of panelists): ranking 7” value is 1 number of panelists. The “Secondary Odor Ranking” value in data set [2] (First Grouping) worked out at 1. The “Average Urine Odor Ranking, Avg. Score” value in data set [2] (setting [6]) is recorded as 5.8.

Source of the values: patent US8409618B2, “Odor-reducing quinone compounds” (Kimberly-Clark Worldwide, Inc., priority 2002, dated 2013).
